Laboratory results as given in the NIST ThermoML archive (doi:10.1016/j.jct.2018.10.027).

Assay: molar heat capacity at constant pressure; mn = molality of the nth substance listed, in mol/kg
Conditions: 100 kPa, Liquid, Large sample (1 g) DSC

[Cl-].[Na+] [sodium chloride] + O
molar heat capacity at constant pressure [J/K/mol]
Conditions | m1 = 0.2038 | m1 = 0.3971 | m1 = 1.032
278.15 K | 75.59 | 75.32 | 74.79
283.15 K | 75.42 | 75.21 | 74.42
288.15 K | 75.27 | 75.07 | 74.37
293.15 K | 75.25 | 74.95 | 74.28
298.15 K | 75.23 | 74.91 | 74.26
303.15 K | 75.22 | 74.9 | 74.22
308.15 K | 75.2 | 74.87 | 74.21
313.15 K | 75.18 | 74.87 | 74.2
318.15 K | 75.19 | 74.88 | 74.21
323.15 K | 75.2 | 74.96 | 74.26
328.15 K | 75.21 | 74.99 | 74.27
333.15 K | 75.25 | 75.03 | 74.28
338.15 K | 75.27 | 75.11 | 74.32
343.15 K | 75.38 | 75.21 | 74.34
348.15 K | 75.47 | 75.26 | 74.45
